In brackets after ≈: the same amount, converted by molar mass. Counter-ions that a name gives are not always drawn. Like-named read-outs stand apart in the source and are kept apart here.
Experiments:
[1] = system: LTB4 production in rat polymorphonuclear cells; experiment: Ex vivo inhibition of LTB4 production (LTB4 biosynthesis); format: cell-based; details: for IC50: Rattus norvegicus, read-out: Inh. of LTB4 biosynth., IC50; for Inh. of LTB4 biosynth., %: at 30 μg (%/μg)
Experimental: Ex vivo Inhibition of LTB4 Production The production of LTB4 was determined in rat polymorphonuclear cells from pleural exudate elicited by heat-activated rat serum (Palmer R. M. J., Salmon J. A.: Immunology 50, 65 (1983)). The cells were stimulated with the Ca ionophore A 23187 (Sigma) and incubated with various concentrations of the drugs tested. The sample containing only buffer was used for the determination of unaffected biosynthesis; the complete inhibition was measured in a sample with 100 μg of NDGA in 1 ml. LTB4 was determined in supernatant using a commercial RIA kit (Amersham).

[2] = biological target: LTB4 receptor (Cavia porcellus, UniProt H0VYV8); experiment: LTB4 receptor binding study; details: 3H-LTB4, guinea-pig spleen membranes; for IC50: read-out: Inh. of LTB4 rec. binding, IC50; for inhibition at 20 µM: read-out: Inh. of LTB4 rec. binding, %
Experimental: LTB4 Receptor Binding Study
A slightly modified method of Cheng and coworkers (Cheng J. B. et al.: J. Pharm. Expl. Ther. 236, 126 (1986)) was used. The membrane fraction was prepared from male guinea-pig spleen; 2 mg of membranes were incubated with 0.3 nM ^3 H-LTB4 at 25° C. for 30 min in 100 μl of the incubated mixture. The nonspecific binding was determined in the presence of 0.1 μM LTB4. The membranes were filtered though Whatman GF/C paper and washed triply with buffer. The radioactivity was measured by liquid scintillation spectrometry, and the specific binding of ^3 H-LTB4 to the receptor was determined.

[3] = biological target: T1, LTD4 receptor (Cavia porcellus, UniProt Q2NNR5); experiment: LTD4 receptor binding study; details: 3H-LTD4, guinea-pig lung membranes; for IC50: read-out: Inh. of LTD4 rec. binding, IC50; for inhibition at 100 µM / inhibition at 20 µM: read-out: Inh. of LTD4 rec. binding, %
T1 construct: The membrane fraction was prepared from male guinea-pig lungs; from tissue; host or cells: male guinea-pig lung membranes
T1 sequence (Q2NNR5 1-340): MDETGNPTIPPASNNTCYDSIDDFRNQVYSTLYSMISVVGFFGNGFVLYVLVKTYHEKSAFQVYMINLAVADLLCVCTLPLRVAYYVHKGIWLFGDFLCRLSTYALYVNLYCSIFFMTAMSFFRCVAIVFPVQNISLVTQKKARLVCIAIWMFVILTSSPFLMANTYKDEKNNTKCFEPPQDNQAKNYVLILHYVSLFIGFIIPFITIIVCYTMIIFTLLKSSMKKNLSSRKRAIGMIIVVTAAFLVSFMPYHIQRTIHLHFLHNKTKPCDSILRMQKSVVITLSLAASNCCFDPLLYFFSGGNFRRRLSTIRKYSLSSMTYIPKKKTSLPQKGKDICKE
Experimental: LTD4 Receptor Binding Study
This study was performed according to the method of Burns and coworkers (Burns R. F. et al.: Life Sci. 33, 645 (1983)). The membrane fraction was prepared from male guinea-pig lungs, and 4 mg of this fraction were incubated with 0.4 nM ^3 H-LTD4 for 60 min at 25° C. in 100 μl of the incubated mixture. The nonspecific binding was determined in the presence of 0.1 μM LTD4. The filtration of the membranes, washing, and radioactivity measurement were as above.

[4] = system: peroxidation of lipids from the hepatic cells membranes; experiment: Antioxidant effect in vitro; format: biochemical; details: at 100 μg
From the text: Antioxidant Effect in vitro
The end-product, malonic dialdehyde, was transformed to coloured complex with thiobarbituric acid and determined spectrophotometrically. The antioxidant effect was expressed in % of peroxidation inhibition in the presence of the compound tested in comparison to a control sample.

[5] = system: Wistar-Han rats; experiment: Inhibition of carrageenan edema; format: in vivo; details: dose 100 mg/kg; for inhibition in vivo at 100 mg/kg: Rattus norvegicus, read-out: CE: inhibition of carrageenan-induced edema, % of inh.
[6] = system: rats; experiment: Inhibition of carrageenan-induced pleuritis in rats; format: in vivo; details: dose 100 mg/kg, oral, values with mark n: p > 0.05; for inhibition in vivo at 100 mg/kg: Rattus norvegicus, po, 4 h
Experimental: Inhibition of Carrageenan-induced Pleuritis in Rats
(Hidaka T. J.: Pharm. Pharmacol. 38, 242 (1986) 1 ml of 0.5% carrageenan solution in saline was administered intrapleurally to experimental animals under mild ether anesthesia. Test drugs were administered in single oral dose 1 h before carrageenan injection, 4 h following the carrageenan application the rats were killed and exudate was withdrawn from opened pleural cavity. The volume of exudate, its cellularity and total cell number were determined.

[7] = system: male mice; experiment: Inhibition of arachidonic acid-induced ear inflammation in mice; format: in vivo; details: for inhibition in vivo at 200 mg/kg: Mus musculus, po, 1 h
Experimental: Inhibition of Arachidonic Acid-induced Ear Inflammation in Mice (Opas E. E. et al.: J. Invest. Dermatol. 84, 253 (1985) Ear inflammation was induced in male mice by 20 μl of arachidonic acid dissolved in acetone (concentration 100 mg/ml). The mice were sacrificed 1 h after application of arachidonic acid and the ears were cut off by standard means. The other, vehicle-treated ear of the same animal served as a control. The degree of ear hyperemia and the weight of ear lobes were evaluated. Test compounds were administered orally 1 h before the induction of inflammation.

[8] = system: bronchospasm induced by LTD4; experiment: Inhibition of bronchospasm induced by LTD4; format: in vivo; details: for Inhibition of bronchospasm induced by LTD4, % of inhibition: dose 100 mg/kg
Experimental: (§1) Inhibition of Allergic Bronchospasm Induced by […] (Compound 48/80 or Ovalbumin, Respectively)
(§2) The modified method of Kreutner W. et al (Krelutner W. et al.: Agents Actions 28, 253 (1989)) was used. Bronchoconstrictioin was induced by intravenous injection of 1 μg/kg LTD4 (3 mg/kg of compound […] or 0.35 mg/kg of ovalbumin, respectively). In the case of oval-bumin, the animals were senzitized by intraperitoneal injection of ovalbumin (100 mg/kg) 14 days before induction. The compounds tested were applied 5 min before the administration of the inductor; the vehiculum used for the application of compound tested was administered to the control group of animals. The tracheal pressure was determined in the intervals of 2, 4 and 10 minutes after induction. The effect was expressed in percentage inhibition of bronchospasm relative to the untreated control.

[9] = system: bronchospasm induced by ovalbumin; experiment: Inhibition of bronchospasm induced by ovalbumin; format: in vivo; details: for Inhibition of bronchospasm induced by ovalbumin, % of inhibition: dose 100 mg/kg
Experimental: as §1, §2

[10] = read-out: Experimental pleuritis, A: volume of exudate in pleural cavity, % of inh.
[11] = read-out: Experimental pleuritis, B: number of cells, % of inh.
[12] = read-out: Experimental pleuritis, C: cellularity in a volume unit, % of inh.
[13] = values with mark n: p > 0.05, read-out: Ear edema, D: edema of ear lobe, % of inh.
[14] = values with mark n: p > 0.05, read-out: Ear edema, E: hyperemia of ear lobe, % of inh.
[15] = dose 200 mg/kg, oral, values with mark n: p > 0.05, 200 mg/kg

Chain of LTB4 receptor (H0VYV8 1-348): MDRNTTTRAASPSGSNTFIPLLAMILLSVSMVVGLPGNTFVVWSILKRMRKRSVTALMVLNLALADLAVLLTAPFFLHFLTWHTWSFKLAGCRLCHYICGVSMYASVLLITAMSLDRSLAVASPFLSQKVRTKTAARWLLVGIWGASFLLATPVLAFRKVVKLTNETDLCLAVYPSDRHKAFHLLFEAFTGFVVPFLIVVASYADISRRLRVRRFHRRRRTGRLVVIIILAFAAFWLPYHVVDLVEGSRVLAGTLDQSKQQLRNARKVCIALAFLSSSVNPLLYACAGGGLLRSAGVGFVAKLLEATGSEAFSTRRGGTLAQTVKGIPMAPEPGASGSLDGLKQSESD

| Compound | IC50 [1] [µg/mL] | IC50 [2] [µM] | inhibition at 20 µM ([2]; at 20 μM) [%] | inhibition at 100 µM [3] [%] | Inh. of LTB4 biosynth., % [1] [%] | IC50 [3] [µM] | Antiox. effect, % of peroxidation inhibition [4] [%] | inhibition in vivo at 100 mg/kg [5] [%] | inhibition in vivo at 100 mg/kg [6, 10] [%] | inhibition in vivo at 100 mg/kg [6, 11] [%] | inhibition in vivo at 100 mg/kg [6, 12] [%] | inhibition in vivo at 200 mg/kg [7, 13] [%] | inhibition in vivo at 200 mg/kg [7, 14] [%] | inhibition in vivo at 100 mg/kg ([8]; 4 min) [%] | also measured |
| --- | --- | --- | --- | --- | --- | --- | --- | --- | --- | --- | --- | --- | --- | --- | --- |
| CCCc1c(OCCCCOc2cccc(Sc3ccc(C(=O)O)cc3)c2)ccc(C(C)=O)c1O [Compound 8, 4-(3-(4-(4-Acetyl-3-hydroxy-2-propylphenoxy)butoxy)phenylsulfanyl)benzoic Acid] | 0.52 (≈ 1.05 µM) | 3.7 | 100 | 69 | 100 | 39.3 | 22 | 24 | 7 | 18 | 11 | 1 | 9 | 98 | – |
| CON1CC/C(=C\c2cc(C(C)(C)C)c(O)c(C(C)(C)C)c2)C1=O [E 5110, reference compound] | – | – | – | – | – | – | – | – | – | – | – | – | – | – | Inhibition of bronchospasm induced by ovalbumin, % of inhibition ([9]; 2 min): 74%; Inhibition of bronchospasm induced by ovalbumin, % of inhibition ([9]; 4 min): 71%; Inhibition of bronchospasm induced by ovalbumin, % of inhibition ([9]; 10 min): 69%; Inhibition of bronchospasm induced by LTD4, % of inhibition ([8]; 2 min): 45%; Inhibition of bronchospasm induced by LTD4, % of inhibition ([8]; 4 min): 55%; Inhibition of bronchospasm induced by LTD4, % of inhibition ([8]; 10 min): 58% |
| CC(c1cc2ccccc2s1)N(O)C(N)=O (centres unmarked) [Zileuton, reference compound] | 0.17 (≈ 0.719 µM) | – | 28 | 7 | 100 | – | – | 46 | 36 | 49 | 20 | 9 | 13 | 54 | inhibition in vivo at 100 mg/kg ([9]; 2 min): 23%; inhibition in vivo at 100 mg/kg ([9]; 4 min): 28%; inhibition in vivo at 100 mg/kg ([9]; 10 min): 50%; inhibition in vivo at 100 mg/kg ([8]; 2 min): 10%; inhibition in vivo at 100 mg/kg ([8]; 10 min): 75% |
| O=C(O)c1ccccc1Sc1cccc(OCc2ccc3cc(Cl)ccc3n2)c1 [Compound 23, Tromethammonium salt of 2-(3-(6-Chloroquinoline-2-ylmethoxy)phenyl-sulfanyl)benzoic Acid] | – | 13.5 | – | – | 96 | 0.1 | 9 | – | – | – | – | – | – | – | Inh. of LTB4 biosynth., IC50 [1]: 0.96 µg/mL; Inh. of LTB4 rec. binding, % ([2]; at 20 μM): 33%; inhibition at 20 µM [3]: 99%; CE: inhibition of carrageenan-induced edema, % of inh. [5]: 50%; Experimental pleuritis, A: volume of exudate in pleural cavity, % of inh. ([6]; 100 mg/kg): 17%; Experimental pleuritis, B: number of cells, % of inh. ([6]; 100 mg/kg): 31%; Experimental pleuritis, C: cellularity in a volume unit, % of inh. ([6]; 100 mg/kg): 17%; Ear edema, D: edema of ear lobe, % of inh. [7, 15]: 1 (s) %; Ear edema, E: hyperemia of ear lobe, % of inh. [7, 15]: 8% |
| CCCc1c(OCCCCOc2cccc(Sc3ccc(C(=O)O)cc3[N+](=O)[O-])c2)ccc(C(C)=O)c1O [Compound 9, 4-(3-(4-(4-Acetyl-3-hydroxy-2-propylphenoxy)butoxy)phenylsulfanyl)-3-nitrobenzoic Acid] | – | 15 | 65 | 53 | 100 | 48.4 | 40 | 19 | 34 | 54 | 30 | 14 | 2 | – | – |

The next lines start with results.

| IC50 [1] [µg/mL] | IC50 [2] [µM] | inhibition at 20 µM ([2]; at 20 μM) [%] | inhibition at 100 µM [3] [%] | Compound | Inh. of LTB4 biosynth., % [1] [%] | IC50 [3] [µM] | Antiox. effect, % of peroxidation inhibition [4] [%] | inhibition in vivo at 100 mg/kg [5] [%] | inhibition in vivo at 100 mg/kg [6, 10] [%] | inhibition in vivo at 100 mg/kg [6, 11] [%] | inhibition in vivo at 100 mg/kg [6, 12] [%] | inhibition in vivo at 200 mg/kg [7, 13] [%] | inhibition in vivo at 200 mg/kg [7, 14] [%] | inhibition in vivo at 100 mg/kg ([8]; 4 min) [%] | also measured |
| --- | --- | --- | --- | --- | --- | --- | --- | --- | --- | --- | --- | --- | --- | --- | --- |
| 0.05 (≈ 0.104 µM) | 9.6 | 65 | 97 | CCCc1c(OCCCOc2cccc(Sc3ccc(C(=O)O)cc3)c2)ccc(C(C)=O)c1O [Compound 5, 4-(3-(3-(4-Acetyl-3-hydroxy-2-propylphenoxy)propoxy)phenylsulfanyl)benzoic Acid] | 100 | 15.1 | 75 | 14 | 10 | 46 | 61 | 1 | 0 | 16 | – |
| 9.2 (≈ 18 µM) | – | 12 | 22 | O=C(O)Cc1ccccc1Sc1ccc(OCCCN2CCN(Cc3ccc(Cl)cc3)CC2)cc1 [Compound 27] | 89 | – | 20 | 13 | 8 | 61 | 47 | 7 | 22 | – | – |
| 0.6 (≈ 1.17 µM) | 7.9 | 69 | – | O=C(O)Cc1ccccc1Sc1cccc(OCCCN2CCN(Cc3ccc(Cl)cc3)CC2)c1 [Compound 28, Dihydrogenmaleate of 2-(3-(3-(1-(4-Chlorobenzyl)piperazin-4-yl)-propoxy)phenylsulfanyl)phenylacetic Acid] | 100 | – | 3 | 18 | 10 | 21 | 14 | 16 | 19 | – | inhibition at 20 µM [3]: 10% |
